Laboratory results published in paper PMC5762315, “Inhibition of polo-like kinase 4 (PLK4): a new therapeutic option for rhabdoid tumors and pediatric medulloblastoma” (Oncotarget, 2017).
pIC50: −log10 of the molar value. Values joined by “and” are separate entries in the source; they are usually repeats but may differ in a detail not shown here. Equal values may be shown once.

What was measured:
[1] = design: method as in PMID 28057846; conditions: adults with advanced solid tumors; cited from earlier work
[2] = test system: MON MRT cells; assay: Confluency assay (IncuCyte ZOOM), MON; format: cell-based, human; conditions: increasing concentrations starting at 31.25nM, 48 hours, p-value=0.004
Procedure: (§1) For further evaluation of the effect of the PLK4 inhibitor over tumor cell proliferation, confluency was measured over a 48 hour period. MON, BT-12, G401 and DAOY cells were plated in 96-well plates with a density of 6 x 10^4 per well. […] Confluency was monitored for 48 hours by taking phase contrast images every 2 hours and measured using an IncuCyte ZOOM system (Essen BioScience, USA). Experiments were performed in triplicates.

[3] = test system: G401 RTK cells; assay: Confluency assay (IncuCyte ZOOM), G401; format: cell-based, human; conditions: increasing concentrations starting at 31.25nM, 48 hours, p-value=0.004
Procedure: as §1

[4] = target: various kinases (Homo sapiens, UniProt Q9H3Y6); assay: biochemical; format: biochemical; conditions: kinase SRMS (Srm); ZLYTE
[5] = target: various kinases (Homo sapiens, UniProt P09769); assay: biochemical; format: biochemical; conditions: FGR
[6] = target: various kinases (Homo sapiens, UniProt Q9H2X6); assay: biochemical; format: biochemical; conditions: HIPK2
[7] = target: various kinases (Homo sapiens, UniProt Q86V86); assay: biochemical; format: biochemical; conditions: PIM3
[8] = target: various kinases (Homo sapiens, UniProt P17948); assay: biochemical; format: biochemical; conditions: FLT1 (VEGFR1)
[9] = target: various kinases (Homo sapiens, UniProt O60674); assay: biochemical; format: biochemical
[10] = target: various kinases (Homo sapiens, UniProt P16234, T674I); assay: biochemical; format: biochemical; conditions: PDGFRA T674I
[11] = target: various kinases (Homo sapiens, UniProt Q56UN5); assay: biochemical; format: biochemical; conditions: MAP3K19 (YSK4)
[12] = target: various kinases (Homo sapiens, UniProt Q96PY6); assay: biochemical; format: biochemical; conditions: NEK1
[13] = target: various kinases (Homo sapiens, UniProt P53779); assay: biochemical; format: biochemical; conditions: MAPK10 (JNK3)
[14] = target: various kinases (Homo sapiens, UniProt P36888); assay: biochemical; format: biochemical; conditions: FLT3
[15] = target: various kinases (Homo sapiens, UniProt P00533, G719C); assay: biochemical; format: biochemical; conditions: EGFR (ErbB1) G719C
[16] = target: various kinases (Homo sapiens, UniProt P49841); assay: biochemical; format: biochemical; conditions: GSK3B (GSK3 beta)
[17] = target: various kinases (Homo sapiens, UniProt P16234, D842V); assay: biochemical; format: biochemical; conditions: PDGFRA D842V
[18] = target: various kinases (Homo sapiens, UniProt Q7KZI7); assay: biochemical; format: biochemical; conditions: MARK2
[19] = target: various kinases (Homo sapiens, UniProt P07333); assay: biochemical; format: biochemical; conditions: CSF1R (FMS)
[20] = target: various kinases (Homo sapiens, UniProt O75116); assay: biochemical; format: biochemical; conditions: kinase ROCK2; ZLYTE
[21] = Brain to plasma ratio (B:P), LC-MS/MS; format: in vivo, male CD-1 mice; conditions: male, CD-1, mouse, po, 7.5 mg/kg, 4 hours post-dose
Procedure: Male CD-1 mice weighing between 20 and 40 grams were fitted with jugular vein cannulas as appropriate and fasted overnight until 4 hours post-dose. Double route of administration (oral and IV) were tested, with a single dose concentration of 7.5mg/kg. Plasma and brain were sampled at 6 time-points, starting at 30 minutes (n=3 animals/time-point). Brain was extracted at the same plasma sampling time-point from each animal. Both plasma and brain samples were deproteinated. Brain samples were weighted, homogenized and CFI-400945 was extracted. […] The dosing solution was normalized in a matched matrix (mouse plasma) and analyzed in triplicate in the same analytical batch as the incurred samples (Absorption Systems - Exton, PA).

[22] = test system: TEK; assay: Kinase activity screening (SelectScreen), TEK; format: biochemical; conditions: kinase TEK (Tie2); ZLYTE
[23] = target: TEK (Homo sapiens, UniProt Q02763, R849W); assay: Kinase activity screening (SelectScreen), TEK; format: biochemical; conditions: kinase TEK (TIE2) R849W; LanthaScreen Binding
[24] = target: TEK (Homo sapiens, UniProt Q02763, Y897S); assay: Kinase activity screening (SelectScreen), TEK; format: biochemical; conditions: kinase TEK (TIE2) Y897S; ZLYTE
[25] = target: TEK (Homo sapiens, UniProt Q02763, Y1108F); assay: Kinase activity screening (SelectScreen), TEK; format: biochemical
[26] = target: hERG K+ channel (Homo sapiens, UniProt Q12809); assay: biochemical
[27] = test system: DAOY MB cells; assay: Confluency assay (IncuCyte ZOOM), DAOY; format: cell-based, human; conditions: increasing concentrations starting at 31.25nM, 48 hours, p-value=0.029
Procedure: as §1

[28] = test system: BT-12 cells; assay: Viability assay (Presto Blue), BT-12; format: cell-based; conditions: Homo sapiens, dose-response 1nM to 10μM
Procedure: Except DAOY and D283, all cell lines were plated with 2 x 10^3 cells per well 96-well and the absorbance was measured after 48 and 72 hours at drug concentrations of 5, 10, 50, 100, 200, 500nM, 1μM and 5μM.

[29] = test system: G401, BT-16, DAOY and D283 cell lines; assay: Flow cytometry cell cycle analysis (polyploidy), other RT and MB lines; format: cell-based, human; conditions: 100nM for 48 hours
Procedure: (§2) Cell cycle evaluation was performed by staining the cells with PI (Thermo Fisher Scientific, USA) according to manufacturer’s instructions. […] Data was analyzed using Modfit LT from Verity Software House. Experiments were performed in triplicates.

[30] = test system: MON rhabdoid cells; assay: Flow cytometry cell cycle analysis (polyploidy), MON; format: cell-based, human; conditions: 100nM for 3-72 hours
Procedure: as §2

Chain of various kinases (Homo sapiens, UniProt Q9H3Y6) (Q9H3Y6 whole entry): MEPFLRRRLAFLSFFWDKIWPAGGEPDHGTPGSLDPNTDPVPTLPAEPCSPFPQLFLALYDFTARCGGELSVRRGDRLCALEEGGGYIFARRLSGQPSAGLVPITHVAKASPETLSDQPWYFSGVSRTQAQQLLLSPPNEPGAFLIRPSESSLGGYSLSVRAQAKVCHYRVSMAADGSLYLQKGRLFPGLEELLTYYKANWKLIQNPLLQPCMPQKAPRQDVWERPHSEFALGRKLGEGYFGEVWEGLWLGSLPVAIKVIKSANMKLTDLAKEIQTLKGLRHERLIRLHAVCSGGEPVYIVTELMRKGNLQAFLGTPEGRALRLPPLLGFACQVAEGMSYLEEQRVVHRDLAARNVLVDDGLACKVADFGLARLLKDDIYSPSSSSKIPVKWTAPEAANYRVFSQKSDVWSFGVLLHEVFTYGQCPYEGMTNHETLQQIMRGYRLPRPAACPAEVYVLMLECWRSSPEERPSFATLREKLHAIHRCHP
Chain of TEK (Homo sapiens, UniProt Q02763, Y897S) (Q02763 771-1124 Y897S): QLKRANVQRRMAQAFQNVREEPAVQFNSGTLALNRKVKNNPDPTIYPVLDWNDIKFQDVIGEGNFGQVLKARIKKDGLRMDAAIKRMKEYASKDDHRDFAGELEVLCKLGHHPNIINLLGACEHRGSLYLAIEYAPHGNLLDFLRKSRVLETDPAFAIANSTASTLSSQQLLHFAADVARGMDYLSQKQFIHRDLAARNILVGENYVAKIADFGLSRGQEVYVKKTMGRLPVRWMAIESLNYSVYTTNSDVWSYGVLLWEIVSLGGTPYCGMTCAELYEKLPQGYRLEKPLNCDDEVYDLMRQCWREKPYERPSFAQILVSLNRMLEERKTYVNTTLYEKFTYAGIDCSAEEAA
Chain of various kinases (Homo sapiens, UniProt O75116) (O75116 whole entry): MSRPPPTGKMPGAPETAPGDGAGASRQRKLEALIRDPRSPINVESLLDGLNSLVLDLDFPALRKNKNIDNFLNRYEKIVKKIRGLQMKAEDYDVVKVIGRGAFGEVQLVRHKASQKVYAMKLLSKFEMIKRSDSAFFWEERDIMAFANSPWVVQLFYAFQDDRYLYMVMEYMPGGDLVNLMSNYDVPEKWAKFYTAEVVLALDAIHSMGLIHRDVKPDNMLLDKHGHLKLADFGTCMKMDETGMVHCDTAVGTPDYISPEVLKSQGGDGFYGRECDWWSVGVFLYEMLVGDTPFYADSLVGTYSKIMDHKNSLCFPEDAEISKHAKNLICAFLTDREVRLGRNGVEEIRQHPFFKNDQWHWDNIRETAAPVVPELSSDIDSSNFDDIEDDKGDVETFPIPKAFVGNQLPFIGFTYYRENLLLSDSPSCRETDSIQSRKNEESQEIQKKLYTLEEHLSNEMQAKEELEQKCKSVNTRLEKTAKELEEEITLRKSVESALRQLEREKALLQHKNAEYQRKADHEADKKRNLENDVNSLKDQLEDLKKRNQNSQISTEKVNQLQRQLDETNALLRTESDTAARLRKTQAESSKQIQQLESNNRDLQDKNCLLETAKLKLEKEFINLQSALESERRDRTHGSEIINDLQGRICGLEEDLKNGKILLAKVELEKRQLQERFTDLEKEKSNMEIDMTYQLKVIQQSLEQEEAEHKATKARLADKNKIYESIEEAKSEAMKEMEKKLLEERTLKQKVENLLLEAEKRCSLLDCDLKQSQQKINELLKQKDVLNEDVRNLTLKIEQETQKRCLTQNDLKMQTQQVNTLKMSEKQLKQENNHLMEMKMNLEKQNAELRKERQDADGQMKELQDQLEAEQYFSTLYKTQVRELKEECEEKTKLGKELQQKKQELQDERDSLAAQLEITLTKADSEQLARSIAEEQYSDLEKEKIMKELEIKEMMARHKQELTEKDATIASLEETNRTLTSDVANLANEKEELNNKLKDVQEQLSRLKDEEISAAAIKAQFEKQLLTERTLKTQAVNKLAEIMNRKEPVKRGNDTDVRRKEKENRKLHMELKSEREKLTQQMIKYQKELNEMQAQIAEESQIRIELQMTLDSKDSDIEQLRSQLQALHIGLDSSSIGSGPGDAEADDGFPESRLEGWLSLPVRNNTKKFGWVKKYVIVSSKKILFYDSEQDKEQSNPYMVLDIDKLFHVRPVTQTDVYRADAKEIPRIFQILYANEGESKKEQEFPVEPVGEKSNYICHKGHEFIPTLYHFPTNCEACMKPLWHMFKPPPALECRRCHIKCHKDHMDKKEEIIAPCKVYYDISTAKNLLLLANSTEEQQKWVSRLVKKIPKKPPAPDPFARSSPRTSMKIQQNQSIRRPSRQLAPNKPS
Chain of various kinases (Homo sapiens, UniProt Q7KZI7) (Q7KZI7 whole entry): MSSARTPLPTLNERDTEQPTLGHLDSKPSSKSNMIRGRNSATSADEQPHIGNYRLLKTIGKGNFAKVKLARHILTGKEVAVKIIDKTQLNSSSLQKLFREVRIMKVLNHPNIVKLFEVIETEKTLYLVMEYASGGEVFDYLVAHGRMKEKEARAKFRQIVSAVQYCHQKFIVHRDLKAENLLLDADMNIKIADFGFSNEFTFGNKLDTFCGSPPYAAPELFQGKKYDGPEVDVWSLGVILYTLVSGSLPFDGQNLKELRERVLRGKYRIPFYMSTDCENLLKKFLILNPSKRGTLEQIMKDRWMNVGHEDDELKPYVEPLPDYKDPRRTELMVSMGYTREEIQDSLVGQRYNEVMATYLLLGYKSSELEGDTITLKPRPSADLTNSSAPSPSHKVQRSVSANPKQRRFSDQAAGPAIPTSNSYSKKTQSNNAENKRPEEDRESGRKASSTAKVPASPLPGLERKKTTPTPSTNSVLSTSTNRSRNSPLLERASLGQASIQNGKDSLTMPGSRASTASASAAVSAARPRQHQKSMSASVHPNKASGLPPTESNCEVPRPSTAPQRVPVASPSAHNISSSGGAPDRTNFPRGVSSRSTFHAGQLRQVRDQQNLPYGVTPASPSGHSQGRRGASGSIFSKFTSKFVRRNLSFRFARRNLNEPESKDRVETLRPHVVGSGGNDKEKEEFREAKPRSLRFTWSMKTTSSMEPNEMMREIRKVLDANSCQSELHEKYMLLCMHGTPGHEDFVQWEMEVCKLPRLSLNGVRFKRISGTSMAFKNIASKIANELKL
Chain of various kinases (Homo sapiens, UniProt O60674) (O60674 whole entry): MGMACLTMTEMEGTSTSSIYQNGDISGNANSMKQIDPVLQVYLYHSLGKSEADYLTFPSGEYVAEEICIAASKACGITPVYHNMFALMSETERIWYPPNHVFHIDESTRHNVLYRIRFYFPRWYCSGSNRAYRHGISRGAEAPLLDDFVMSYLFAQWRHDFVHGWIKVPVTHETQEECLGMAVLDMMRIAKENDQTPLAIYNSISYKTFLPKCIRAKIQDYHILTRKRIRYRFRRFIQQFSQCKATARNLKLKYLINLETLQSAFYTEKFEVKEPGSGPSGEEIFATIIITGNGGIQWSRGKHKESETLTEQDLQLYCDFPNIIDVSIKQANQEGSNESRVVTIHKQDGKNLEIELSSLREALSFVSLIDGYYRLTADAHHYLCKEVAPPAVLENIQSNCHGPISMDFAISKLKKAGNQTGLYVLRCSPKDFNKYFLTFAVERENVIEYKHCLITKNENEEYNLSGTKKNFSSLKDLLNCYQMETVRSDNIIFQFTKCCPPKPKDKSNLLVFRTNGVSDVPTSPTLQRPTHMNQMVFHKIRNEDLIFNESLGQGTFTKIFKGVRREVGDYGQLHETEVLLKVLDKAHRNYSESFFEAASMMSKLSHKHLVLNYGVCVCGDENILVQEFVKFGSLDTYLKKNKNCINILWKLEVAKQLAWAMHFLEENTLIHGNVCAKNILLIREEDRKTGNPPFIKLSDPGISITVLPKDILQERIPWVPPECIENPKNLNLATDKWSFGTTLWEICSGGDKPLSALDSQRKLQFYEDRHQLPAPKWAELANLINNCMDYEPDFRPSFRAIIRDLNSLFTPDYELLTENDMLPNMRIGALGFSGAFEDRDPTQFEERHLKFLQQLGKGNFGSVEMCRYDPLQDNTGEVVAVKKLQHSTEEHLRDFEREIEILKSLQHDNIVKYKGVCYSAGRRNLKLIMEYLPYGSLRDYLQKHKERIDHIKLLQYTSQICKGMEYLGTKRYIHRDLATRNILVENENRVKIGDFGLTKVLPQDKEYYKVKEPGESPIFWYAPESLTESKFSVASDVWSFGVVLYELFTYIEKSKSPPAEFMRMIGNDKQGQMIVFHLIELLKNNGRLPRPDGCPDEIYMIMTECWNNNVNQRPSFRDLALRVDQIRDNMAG
Chain of various kinases (Homo sapiens, UniProt P09769) (P09769 whole entry): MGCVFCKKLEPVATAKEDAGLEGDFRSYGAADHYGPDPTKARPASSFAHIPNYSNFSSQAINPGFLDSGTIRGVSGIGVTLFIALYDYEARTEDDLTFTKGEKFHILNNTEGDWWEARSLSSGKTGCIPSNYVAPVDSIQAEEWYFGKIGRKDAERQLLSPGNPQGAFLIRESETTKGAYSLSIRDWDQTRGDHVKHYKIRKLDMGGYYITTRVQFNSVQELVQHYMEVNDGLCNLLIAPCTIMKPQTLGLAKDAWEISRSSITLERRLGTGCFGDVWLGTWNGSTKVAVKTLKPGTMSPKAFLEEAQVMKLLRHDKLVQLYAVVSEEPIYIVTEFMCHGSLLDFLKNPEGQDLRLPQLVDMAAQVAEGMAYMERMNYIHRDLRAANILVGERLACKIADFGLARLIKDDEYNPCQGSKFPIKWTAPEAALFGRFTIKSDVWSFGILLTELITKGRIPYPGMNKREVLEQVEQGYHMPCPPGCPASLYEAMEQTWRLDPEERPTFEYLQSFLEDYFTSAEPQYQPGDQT
Chain of TEK (Homo sapiens, UniProt Q02763, Y1108F) (Q02763 771-1124 Y1108F): as the sequence (Q02763 771-1124 Y897S) above, with S127Y, Y338F counted along it

COc1ccc2c(c1)[C@]1(C[C@H]1c1ccc3c(/C=C/c4ccc(CN5C[C@@H](C)O[C@@H](C)C5)cc4)n[nH]c3c1)C(=O)N2 [CFI-400945]
tolerability, preliminary phase I results [1]: well tolerated at doses up to 72 mg | FC, delay in reaching confluency [2]: 1.56 | FC, delay in reaching confluency [3]: 1.78 | % Inhibition Average [4]: 11% | % Inhibition Duplicate #1 [4]: 10% | % Inhibition Duplicate #2 [4]: 12% | % Inhibition [5]: 28% and 26% | % Inhibition [6]: 2% and 0% | % Inhibition [7]: -1% and 0% | % Inhibition [8]: 0% and 1% | % Inhibition ([9]; JAK2): 9% | % Inhibition ([9]; JAK2 JH1 JH2): 7% | % Inhibition [10]: 1% and 2% | % Inhibition [11]: 7% and 4% | % Inhibition [12]: 7% and 2% | % Inhibition [13]: 5% | % Inhibition [14]: 74% | pIC50 [14]: 7.22 | % Inhibition [15]: 3% and 2% | % Inhibition [16]: 7% and 6% | % Inhibition [17]: 4% and 10% | % Inhibition [18]: 7% and 2% | % Inhibition [19]: 14% and 15% | % Inhibition Average [20]: 1% | % Inhibition Duplicate #1 [20]: 1% | % Inhibition Duplicate #2 [20]: 1% | Kp at 4 h ([21]; brain / plasma, fasted male CD-1 mice, triplicates, read-out: Average Raw B:P Ratio): ~0.08 | concentration at 4 h ([21]; plasma, plasma density assumed 1 g/mL, individual mice #355, 356, 357, read-out: Plasma Conc.): 498 ng/g | % Inhibition Duplicate #2 [22]: 55% | % Inhibition Duplicate #2 [23]: 87% | % Inhibition Average [24]: 31% | % Inhibition Duplicate #1 [24]: 29% | % Inhibition Duplicate #2 [24]: 32% | pIC50 [25]: 6.96 | pIC50 [26]: < 6.30 | FC, delay in reaching confluency [27]: 1.70 | pIC50 [28]: 5.43 | polyploidy (cell cycle analysis) [29]: extreme polyploidy | polyploidy (cell cycle analysis) [30]: time-dependent induction of polyploidy
